Measured values taken from ChEMBL document CHEMBL5233212, “Recent advance in the development of novel, selective and potent FGFR inhibitors” (Eur J Med Chem, 2020).
Values belong to the compound of their own block, whether it stands above or below them.

Experiments:
[1] = target: T1, Fibroblast growth factor receptor 1 (Homo sapiens, UniProt P11362); test: Inhibition of FGFR1 (unknown origin) in presence of ATP by caliper mobility shift assay
Target sequence in this assay (P11362 whole entry): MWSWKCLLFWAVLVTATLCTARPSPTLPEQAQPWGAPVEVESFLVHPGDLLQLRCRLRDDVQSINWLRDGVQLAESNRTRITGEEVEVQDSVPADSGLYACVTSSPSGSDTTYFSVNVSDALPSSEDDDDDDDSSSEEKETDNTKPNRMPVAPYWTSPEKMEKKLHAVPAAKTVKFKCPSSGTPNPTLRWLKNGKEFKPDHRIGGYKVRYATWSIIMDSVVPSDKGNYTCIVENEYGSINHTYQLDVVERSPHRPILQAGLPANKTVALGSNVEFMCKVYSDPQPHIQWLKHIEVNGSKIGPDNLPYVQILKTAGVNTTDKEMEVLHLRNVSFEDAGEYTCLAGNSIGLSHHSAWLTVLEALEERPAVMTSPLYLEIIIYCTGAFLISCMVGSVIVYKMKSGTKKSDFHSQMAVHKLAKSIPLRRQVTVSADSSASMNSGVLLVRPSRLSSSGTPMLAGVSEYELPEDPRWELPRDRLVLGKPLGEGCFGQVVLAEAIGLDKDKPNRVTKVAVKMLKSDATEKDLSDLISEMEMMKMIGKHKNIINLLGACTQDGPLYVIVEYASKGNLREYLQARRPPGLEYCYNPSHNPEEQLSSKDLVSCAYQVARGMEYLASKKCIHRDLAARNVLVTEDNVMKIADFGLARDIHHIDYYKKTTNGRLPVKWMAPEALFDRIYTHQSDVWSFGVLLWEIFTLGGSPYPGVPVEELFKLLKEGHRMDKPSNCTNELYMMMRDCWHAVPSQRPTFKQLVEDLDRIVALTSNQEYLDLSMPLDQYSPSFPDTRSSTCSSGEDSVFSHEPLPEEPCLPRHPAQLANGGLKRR

[2] = target: T1, Fibroblast growth factor receptor 1; test: Inhibition of human recombinant FGFR1 using Poly (Glu, Tyr)4:1 as substrate at 10 nM incubated for 90 mins in presence of ATP by ELISA based spectrophotometer assay
Target sequence in this assay (P11362 22-822 limits assumed): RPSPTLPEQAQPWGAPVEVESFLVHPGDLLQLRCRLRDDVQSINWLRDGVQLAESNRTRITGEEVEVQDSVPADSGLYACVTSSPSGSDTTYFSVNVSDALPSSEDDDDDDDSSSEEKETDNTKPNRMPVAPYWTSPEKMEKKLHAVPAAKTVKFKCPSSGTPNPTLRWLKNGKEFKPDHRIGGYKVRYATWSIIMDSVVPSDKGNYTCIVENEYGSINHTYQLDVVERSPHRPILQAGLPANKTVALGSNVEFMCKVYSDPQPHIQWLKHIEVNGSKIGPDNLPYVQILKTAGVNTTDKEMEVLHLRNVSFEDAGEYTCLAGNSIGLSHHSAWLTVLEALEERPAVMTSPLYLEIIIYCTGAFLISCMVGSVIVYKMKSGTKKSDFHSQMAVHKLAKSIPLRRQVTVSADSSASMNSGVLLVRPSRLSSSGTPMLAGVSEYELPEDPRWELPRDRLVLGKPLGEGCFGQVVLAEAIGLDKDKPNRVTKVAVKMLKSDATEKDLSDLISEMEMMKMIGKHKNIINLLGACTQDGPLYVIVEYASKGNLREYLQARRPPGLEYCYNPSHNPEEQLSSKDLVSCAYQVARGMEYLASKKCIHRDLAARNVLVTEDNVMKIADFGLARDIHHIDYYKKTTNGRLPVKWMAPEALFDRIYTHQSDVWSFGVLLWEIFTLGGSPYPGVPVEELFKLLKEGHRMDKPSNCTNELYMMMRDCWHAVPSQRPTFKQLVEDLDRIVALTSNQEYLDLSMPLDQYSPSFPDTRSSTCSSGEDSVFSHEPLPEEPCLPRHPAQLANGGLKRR

[3] = target: Fibroblast growth factor receptor (Homo sapiens, UniProt P22607+P11362+P22455+P21802); test: Inhibition of FGFR (unknown origin) using […] incubated for 60 mins by Kinase-Glo Plus luminescence assay; type: protein assay
[4] = Antiproliferative activity against human KATO III stomach cancer cell line assessed as inhibition of cell growth incubated for 72 hrs by MTT colorimetric assay; type: functional, cell-based
[5] = system: KG-1; test: Antiproliferative activity against human KG-1 cells assessed as inhibition of cell growth incubated for 72 hrs by MTT colorimetric assay; type: functional, cell-based; conditions: KG-1, 72 h
[6] = system: RT-112; test: Antiproliferative activity against human RT-112 cells assessed as inhibition of cell growth incubated for 72 hrs by MTT colorimetric assay; type: functional, cell-based; conditions: RT-112, 72 h
[7] = system: SNU-16; test: Antiproliferative activity against human SNU-16 cells assessed as inhibition of cell growth incubated for 72 hrs by MTT colorimetric assay; type: functional, cell-based; conditions: SNU-16, 72 h
[8] = system: NCI-H1581; test: Antiproliferative activity against human NCI-H1581 cells assessed as inhibition of cell growth incubated for 72 hrs by MTT colorimetric assay; type: functional, cell-based; conditions: NCI-H1581, 72 h
[9] = target: Tyrosine-protein kinase BTK (Homo sapiens, UniProt Q06187); test: Inhibition of human BTK (382 to 659 residues) expressed in baculovirus infected Sf21 insect cells preincubated for 15 mins followed by ATP addition and measured upto 180 mins by microfluidic capillary electrophoresis analysis
Tyrosine-protein kinase BTK, sequence (Q06187 whole entry, the tested form may be a part): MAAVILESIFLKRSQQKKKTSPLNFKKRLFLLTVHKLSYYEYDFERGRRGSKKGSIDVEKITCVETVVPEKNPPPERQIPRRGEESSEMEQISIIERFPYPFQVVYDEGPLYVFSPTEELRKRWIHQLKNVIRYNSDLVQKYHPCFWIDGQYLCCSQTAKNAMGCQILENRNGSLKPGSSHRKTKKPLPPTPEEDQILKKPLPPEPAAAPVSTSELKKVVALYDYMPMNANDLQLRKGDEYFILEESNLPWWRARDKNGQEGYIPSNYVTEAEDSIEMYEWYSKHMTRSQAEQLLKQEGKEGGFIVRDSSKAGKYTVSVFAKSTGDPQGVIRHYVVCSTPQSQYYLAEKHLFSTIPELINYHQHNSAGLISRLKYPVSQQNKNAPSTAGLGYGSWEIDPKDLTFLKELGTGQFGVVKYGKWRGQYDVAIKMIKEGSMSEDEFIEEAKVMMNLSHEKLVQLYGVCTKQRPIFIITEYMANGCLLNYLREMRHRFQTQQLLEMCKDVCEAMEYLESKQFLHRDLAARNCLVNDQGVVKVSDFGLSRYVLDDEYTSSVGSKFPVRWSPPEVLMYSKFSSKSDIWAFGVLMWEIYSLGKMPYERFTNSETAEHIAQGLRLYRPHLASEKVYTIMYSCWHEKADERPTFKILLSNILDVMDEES

- inhibition [2]: 93.3%
SMILES: O=S(=O)(c1cn(CCF)cn1)n1ncc2ncc(-c3cn[nH]c3)nc21

- inhibition [2]: > 90%
SMILES: Cn1cc(-c2cnc3cnn(S(=O)(=O)c4ccccc4)c3n2)cn1

- IC50 [3]: 9.59 µM
SMILES: Cc1nc(OCC(=O)N/N=C/c2ccc(Cl)cc2)c2c(C)nn(-c3ccccc3)c2n1

Further lines, the compound ahead of its results:

SMILES: COc1cc(/C=C2\CC/C(=C\c3ccc(OC(=O)C(C)C)c(OC)c3)C2=O)ccc1OC(=O)C(C)C
- IC50 [1]: 2.6 µM

SMILES: CCC(=O)Oc1ccc(/C=C2\CC/C(=C\c3ccc(OC(=O)CC)c(OC)c3)C2=O)cc1OC
- IC50 [1]: 3 µM

SMILES: Cc1n[nH]c2ccc(-c3cc(N[C@@H](CO)c4ccccc4)cnc3-c3cc(F)ccc3O)cc12
- IC50 [4]: 0.156 µM
- IC50 [5]: 0.0145 µM
- IC50 [6]: 0.122 µM
- IC50 [7]: 0.0248 µM
- IC50 [8]: 0.391 µM

SMILES: CNc1ncc2cc(-c3cc(OC)cc(OC)c3Cl)c(=O)n(CCc3ccc(NC(=O)/C(C#N)=C/C(C)(C)N)cc3)c2n1
- IC50 [9]: 0.0005 µM
